The source of these data is US20190060340A1, “NOVEL AMINOGLYCOSIDES AND USES THEREOF IN THE TREATMENT OF GENETIC DISORDERS” (Technion Research & Development Foundation Limited, priority 2007, published 2019).

In data set [1] the test system is Bacillus Subtilis ATCC 6633. The experiment in a line: Antibacterial activity, MIC by double-microdilution method. Type of data set: cell-based. The conditions noted are these: ATCC 6633; for MIC: Bacillus subtilis, ATCC6633, read-out: MIC B. Subtilis. The procedure:
(§1) In order to compare the observed aminoglycoside-induced stop codon read-through activity in mammalian cells to antibacterial activity thereof, Compounds 1-9 were further investigated as antibacterial agents against both Gram-negative (E. coli) and Gram-positive (Bacillus subtilis) bacteria, and the minimal inhibitory concentration (MIC) values were determined by using a microdilution assay with paromomycin and gentamicin as controls, and the results are presented in Table 18 hereinabove.
(§2) The bacterial strains used were Escherichia coli ATCC 25922, and Bacillus Subtilis ATCC 6633. […] All the experiments were performed in triplicates and analogous results were obtained in two to four different experiments.

Data set [2] concerns Escherichia coli ATCC 25922. The description is as above. Type of data set: cell-based. The conditions noted are these: ATCC 25922; for MIC: Escherichia coli, ATCC25922, read-out: MIC E. coli. The procedure:
as §1, §2

Data set [3] has as its system original p2Luc plasmid containing a TGA C nonsense mutation. The experiment in a line: Dual luciferase in vitro transcription/translation assay. Type of data set: biochemical. The conditions noted are these: for Conc. (μM) at which maximum suppression level was achieved: dual luciferase in vitro system, all constructs of Table 21; for Maximum in vitro suppression (%) UGAC: p2luc. The text has this: DNA fragments derived from the subsequent genes, including the tested stop mutation or the corresponding wild-type codon, and four upstream and downstream flanking codons (except for p.R3X constructs, in which there are only two upstream PCDH15-flanking codons) were cloned into p2Luc plasmid between renilla and firefly luciferase genes as described previously. The formed plasmids, as well as the original p2Luc plasmid containing a TGA C nonsense mutation, were transcribed and translated in vitro and the stop codon suppression efficiency was calculated as described previously.
For the dual luciferase in vitro transcription/translation assay, DNA fragments derived from PCDH15, CFTR, Dystrophin and IDUA cDNAs, including the tested stop mutation or the corresponding wild-type codon, and four upstream and downstream flanking codons (except for p.R3X constructs, in which there are only two upstream PCDH15-flanking codons) were created by annealing the couples of complementary oligonucleotides presented above.
Fragments were inserted into the SalI and SacI restriction sites of the p2Luc plasmid between renilla and firefly luciferase genes. The afforded plasmids, as well as the original p2Luc plasmid containing a TGA C nonsense mutation, were transcribed and translated using the TNT Reticulocyte Lysate Quick Coupled Transcription/Translation System (Promega™). Each transcription/translation reaction (10 μl, total volume) contained 8 μl TNT T7 Quick Master Mix, 0.2 μl methionine (1 mM), 0.8 μl DNA template (2 μg/μl), 1 μl of either water (blank) or 1 μl solution of increasing concentrations of the tested aminoglycosides in water. Luciferase activity was determined following 90 minutes incubation at 30° C. using the Dual Luciferase Reporter Assay System (Promega™). The total luminescence produced by each one of the proteins was measured separately using the FLx800 multidetection plate reader (Bio-Tek) and the stop codon suppression efficiency was calculated as described previously. The results are averages of at least three independent experiments.

The next data set relates to eukaryotic translation. Nature of the data set: Inhibition of eukaryotic translation. In kind it is biochemical.
Data set [4] in a line: Cell toxicity assay (XTT cell proliferation). Type of data set: cell-based. The procedure:
(§3) After 1 day the medium was changed to medium without streptomycin and different concentrations of the tested compounds were added. After 48 hours a cell proliferation assay (XTT based colorimetric assay, Biological Industries) was performed, using the 5 hours incubation protocol, according to the manufacturer's instructions. Optical density (OD) was read using an Elisa plate reader. Cell viability was calculated as the ratio between the number of living cells in cultures grown in the presence of the tested compounds, versus the corresponding cell cultures which were grown without the tested compounds.

Data set [5] has as its system UGA C stop codon (p2LUC plasmid) in COS-7 cells. Nature of the data set: Ex vivo suppression, p2LUC dual luciferase reporter plasmid in COS-7 cells. The conditions noted are these: 24 hours incubation. Type of data set: cell-based, monkey. The procedure: Recent studies on enhanced production of functional proteins from nonsense codon-containing genes by promoter-activating agents support this presumption. To test this possibility, Compound 3 along with paromomycin and gentamicin, were evaluated for the UGA C stop codon read-through activity in cultured cells using a dual luciferase reporter system.
Suppression of nonsense mutations by Compounds 1-9 was tested ex vivo using a dual luciferase reporter plasmid. The p2LUC plasmid harboring the UGAC mutation was transfected to COS-7 cells with Lipofectamine 2000 (Invitrogen) and addition of tested compounds was performed after 15 hours. Luciferase activity was determined after 24 hours of incubation, using the Dual Luciferase Reporter Assay System (Promega) and stop codon readthrough was calculated as described previously.

The subject of the next data set is TGA stop codon. Nature of the data set: Preliminary tests for in vitro readthrough activity of the TGA stop codon. Type of data set: biochemical.
The next data set can be described thus: Acute toxicity in mice. In kind it is in vivo.
Data set [6] can be described thus: Cell toxicity of Compound 37. In kind it is cell-based.
For data set [7], the system named is R3X nonsense mutation of the PCDH15 gene in COS-7 cells. Nature of the data set: Ex vivo readthrough assay, p2luc-R3X dual luciferase reporter plasmid in COS-7 cells. Type of data set: cell-based, monkey. The procedure: For the, suppression of nonsense mutations by novel compounds was tested ex vivo using a dual luciferase reporter plasmid ex vivo readthrough assay. To generate the p2luc plasmid harboring the R3X nonsense mutation of the PCDH15 gene, the following oligonucleotides: 5′-[…]-3′ (SEQ ID NO: 21) and 5′-[…]-3′ (SEQ ID NO: 22) were annealed to each other and inserted into to polylinker sequence of the p2luc vector. The reporter plasmid p2luc-R3X was transfected to cos-7 cells with Lipofectamine 2000 (Invitrogen) and addition of tested compounds was performed 5 hours post transfection. Luciferase activity was determined after 24 hours of incubation, using the Dual Luciferase Reporter Assay System (Promega) and stop codon readthrough was calculated as described previously.

Data set [8] deals with human cytoplasmic A site olygonucleotide model duplexes. The experiment in a line: UV melting of A site oligonucleotide model duplexes. In kind it is binding. The text has this: FIG. 7 presents the UV melting profiles observed for the human cytoplasmic A site olygonucleotide model duplexes in the absence of any drug (“No Drug” curve in FIG. 7) and in complex with ribostamycin (“Ribostamycin” curve in FIG. 7), Compound 3 (“NB30” curve in FIG. 7) and Compound 37 (“NB54” curve in FIG. 7) complexes at a drug/duplex ratio of 5:1;

The conditions of data set [9]: available toxicity data on aminoglycosides; unit inferred; cited from earlier work.
Another data set relates to COS-7 (monkey kidney). Nature of the data set: Cell toxicity assay (XTT cell proliferation). In kind it is cell-based. The conditions noted are these: 48 hours. The procedure:
as §3

Data set [10] deals with HEK-293 (human embryonic kidney). The experiment in a line: Cell toxicity assay (XTT cell proliferation). Type of data set: cell-based. The conditions noted are these: 48 hours. The procedure:
as §3

The subject of another data set is MDCK (canine kidney). Nature of the data set: Cell toxicity assay (XTT cell proliferation). In kind it is cell-based. The conditions noted are these: 48 hours. The procedure:
as §3

Converted amounts (≈) assume the structure as drawn. Where two headings read alike, the source gives them in different places. Bounds are passed on as bounds.

For the molecule `NC[C@H]1O[C@@H](O[C@@H]2[C@@H](O)[C@H](N)C[C@H](N)[C@H]2O[C@H]2O[C@H](CO)[C@@H](O)[C@H](O)[C@H]2N)[C@H](O)[C@@H]1O` [Compound 3], the MIC was 48 µg/mL (≈ 106 µM) in data set [1] and more than 512 µg/mL in data set [2]. For the same molecule, in data set [3], the “Conc. (μM) at which maximum suppression level was achieved” value (from here on “Conc. (μM)”) stood at 107 µM. For the same molecule, the “Maximum in vitro suppression (%) UGAC” value in data set [3] amounted to 4.8 ± 0.8%. Besides, in the data set with eukaryotic translation, half-maximal inhibition (IC50) was put at 31 µM. Also, the “fold more efficient inhibition of eukaryotic translation than gentamicin and paromomycin” value in the data set with eukaryotic translation was “about 2 fold”. The CC50 at 48 h came to 7530 ± 1210 µg/mL (≈ 16600 µM) in data set [4] (dog, MDCK cells, 48 hours, read-out: LC50 MDCK); 4820 ± 920 µg/mL (≈ 10600 µM) in data set [4] (human, HEK-293 cells, 48 hours, read-out: LC50 HEK293); 7030 ± 1850 µg/mL (≈ 15500 µM) in [4] (monkey, COS-7 cells, 48 hours, read-out: LC50 COS-7). In addition, the “ex-vivo suppression of nonsense mutation (read-through activity), FIG. 4” value in [5] was “superior to that of paromomycin and gentamicin at all the tested concentrations”.
For `NCC[C@H](O)C(=O)N[C@@H]1CC(N)[C@@H](O[C@H]2OC(CO)[C@@H](O)C(O)C2N)C(O[C@@H]2O[C@H](CN)C(O)C2O)C1O` (stereo partly shown) [Compound 37], in the data set on TGA stop codon, the “in vitro readthrough activity of the TGA stop codon vs Compound 3 and paromomycin” value is on record as “significantly higher stop codon read-through activity”. In the data set “Acute toxicity in mice”, the “acute toxicity in mice in comparison to paromomycin and gentamicin” value is “significantly reduced”. Also, the “cell toxicity in comparison to paromomycin and gentamicin” value in data set [6] is “significantly reduced”. In data set [3], the “Conc. (μM)” value was 46 µM and the “Maximum in vitro suppression (%) UGAC” value is reported as 18.4 ± 1.6%. In addition, in the data set with eukaryotic translation, it took 24 µM to reach half-maximal inhibition (IC50); the “fold more efficient inhibition of eukaryotic translation than gentamicin and paromomycin” value was “about 3 fold”. Moreover, the “maximum suppression level of the R3X nonsense mutation” value in [7] is 5.25%. The “affinity to the cytoplasmic A site versus Compound 3” value in data set [8] is recorded as “greater affinity”.
With `NC[C@@H]1O[C@H](O[C@H]2[C@@H](O)[C@H](O[C@@H]3[C@@H](O)[C@H](N)C[C@H](N)[C@H]3O[C@H]3O[C@H](CO)[C@@H](O)[C@H](O)[C@H]3N)O[C@@H]2CO)[C@H](N)[C@@H](O)[C@@H]1O` [paromomycin, reference compound], the values for the MIC in [1] and in data set [2] were 8 µg/mL (≈ 13 µM) and 12 µg/mL (≈ 19.5 µM), respectively. The “Conc. (μM)” value in [3] turned out to be 42 µM. The “Maximum in vitro suppression (%) UGAC” value in [3] worked out at 7.8 ± 2.2%. This molecule also came in with an IC50 in the data set with eukaryotic translation of 58 µM. The LD50 in data set [9] is 160 mg/kg. For the same molecule, the CC50 at 48 h in [4] (dog) was 1000 ± 60 µg/mL (≈ 1620 µM); in [4] (human) it was 770 ± 140 µg/mL (≈ 1250 µM); in data set [4] (monkey) it was 900 ± 100 µg/mL (≈ 1460 µM).
Turning to gentamicin [reference compound], the “MIC B. Subtilis” value in [1] is less than 0.5 µg/mL. The “MIC E. coli” value in data set [2] is 4 µg/mL. In data set [3], the “Conc. (μM)” value was found to be 46 µM and the “Maximum in vitro suppression (%) UGAC” value is reported as 17.7 ± 2.9%. Moreover, half-maximal inhibition in the data set on eukaryotic translation (IC50) was put at 60 µM. Moreover, in the data set on COS-7 (monkey kidney), the “LC50 COS-7” value amounted to 490 ± 60 µg/mL. Further, the “LC50 HEK293” value in data set [10] was determined as 700 ± 80 µg/mL. Besides, the “LC50 MDCK” value in the data set with MDCK (canine kidney) came out at 510 ± 70 µg/mL. In addition, the “ex-vivo suppression of nonsense mutation (read-through activity), FIG. 4” value in data set [5] is “less efficient than either paromomycin or Compound 3”.
